# Measured values reported in patent US20010004528A1, “USE OF 13C NUCLEAR MAGNETIC RESONANCE TO DETECT BINDING TO TARGET MOLECULES” (priority 1995, published 2001).
# Target: T1, FKBP (Homo sapiens, UniProt P62942)
# T1 construct: made in house; host or cells: E. coli
# Assay: Screening for ligands using 13C/1H NMR correlation spectra of 13C-enriched FKBP
# Type: binding
# Procedure: Uniformly ^13C-enriched FKBP was prepared in accordance with the procedures detailed above. […]
# Two-dimensional ^13C/^1H NMR spectra were generated at 30° C. on a Bruker DRX500 NMR spectrometer equipped with a triple resonance probe and Bruker sample changer. The ^13C/^1H HSQC spectra were acquired as 64×1024 complex points using sweep widths of 3771 Hz (^13C, t1) and 8333 Hz (^1H, t2). A delay of 1 second between scans and 8 scans per free induction decay (fid) were employed in the data collection. All NMR spectra were processed and analyzed on Silicon Graphics computers.
# A first two-dimensional ^13C/^1H NMR correlation spectrum was acquired for the ^13C-labeled FKBP target molecule as described above. The FKBP target was then exposed to a library mixture of test compounds. Stock solutions of the compounds were made at 100 mM and 1 M. In addition, a combination library was prepared which contained 8-10 compounds per sample at a concentration of 100 mM for each compound.
# The pH of the 1 M stock solution was adjusted with acetic acid and ethanolamine so that no pH change was observed upon a 1/10dilution with a 100 mM phosphate buffered solution (pH 7.0). It is important to adjust the pH, because small changes in pH can alter the chemical shifts of the biomolecules and complicate the interpretation of the NMR data.
# The compounds in the library were selected on the basis of size (molecular weight=100-300) and molecular diversity. The molecules in the collection had different shapes (for example, flat aromatic rings(s), puckered aliphatic rings(s), straight and branched chain aliphatics with single, double, or triple bonds) and diverse functional groups (for example, carboxylic acids, esters, ethers, amines, aldehydes, ketones, and various heterocyclic rings) to maximize the possibility of discovering compounds that interact with widely diverse binding sites. […]
# T1 sequence (P62942 whole entry): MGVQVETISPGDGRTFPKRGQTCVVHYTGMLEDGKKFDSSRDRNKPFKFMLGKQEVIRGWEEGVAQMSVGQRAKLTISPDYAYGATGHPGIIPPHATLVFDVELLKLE
compound,measurement,setting,value
c1ccc(-c2ncc[nH]2)cc1 [2-phenylimidazole],involvement of alanyl residues in binding (13C/1H correlation spectra),"FKBP selectively 13C labeled at alanyl residues, 2-phenylimidazole 0.25 mM",none of the alanyl residues are involved in the binding
same,binding site residues from chemical shift changes in 13C/1H correlation spectra,"FKBP selectively 13C/15N/2H labeled at valinyl and leucyl residues, 2-phenylimidazole 0.25 mM",binding is occurring at or near the Leu^97 and Val^55 residues
same,binding to FKBP detected by chemical shift changes in 13C/1H correlation spectra,"uniformly 13C-enriched FKBP 0.2 mM, compound about 0.25 mM, phosphate buffer pH 6.5, 30° C.",found to bind to FKBP
